Reference: ChEMBL document CHEMBL1909046, “DrugMatrix in vitro pharmacology data”
pIC50, pKi: −log10 of the molar value.

How the values were obtained:
[1] = DRUGMATRIX: ATPase, Na+/K+ enzyme inhibition (substrate: ATP); type: tissue-based, Sus scrofa, Heart; settings: Not Active = under 50% inhibition at 10 µM
[2] = DRUGMATRIX: beta-Lactamase enzyme inhibition (substrate: Nitrocefin); design: species or system Bacillus cereus; settings: Not Active = under 50% inhibition at 10 µM
[3] = DRUGMATRIX: Calcium Channel Type L, Benzothiazepine radioligand binding (ligand: [3H] Diltiazem); type: cell membranes, Rattus norvegicus, Wistar, Brain, Membrane; settings: Not Active = under 50% inhibition at 10 µM; for pIC50: read-out: IC50; for pKi: read-out: Ki
[4] = DRUGMATRIX: Calcium Channel Type L, Phenylalkylamine radioligand binding (ligand: [3H] (-)-Desmethoxyverapamil (D-888)); type: cell membranes, Rattus norvegicus, Wistar, Brain, Membrane; settings: Not Active = under 50% inhibition at 10 µM; for pIC50: read-out: IC50; for pKi: read-out: Ki
[5] = DRUGMATRIX: GABAA, Muscimol, Central radioligand binding (ligand: [3H] Muscimol); type: cell membranes, Rattus norvegicus, Wistar, Brain, Membrane; settings: Not Active = under 50% inhibition at 10 µM
[6] = DRUGMATRIX: Glutamate, Kainate radioligand binding (ligand: [3H] Kainic acid); type: cell membranes, Rattus norvegicus, Wistar, Brain, Membrane; settings: Not Active = under 50% inhibition at 10 µM
Cytochrome P450 2C9 = Cytochrome P450 2C9 (Homo sapiens, UniProt P11712); settings: bti-tn-5b1-4; note: in other assays of this panel Not Active means under 50% inhibition at 10 µM
Sequence of Cytochrome P450 2C9 (P11712 whole entry): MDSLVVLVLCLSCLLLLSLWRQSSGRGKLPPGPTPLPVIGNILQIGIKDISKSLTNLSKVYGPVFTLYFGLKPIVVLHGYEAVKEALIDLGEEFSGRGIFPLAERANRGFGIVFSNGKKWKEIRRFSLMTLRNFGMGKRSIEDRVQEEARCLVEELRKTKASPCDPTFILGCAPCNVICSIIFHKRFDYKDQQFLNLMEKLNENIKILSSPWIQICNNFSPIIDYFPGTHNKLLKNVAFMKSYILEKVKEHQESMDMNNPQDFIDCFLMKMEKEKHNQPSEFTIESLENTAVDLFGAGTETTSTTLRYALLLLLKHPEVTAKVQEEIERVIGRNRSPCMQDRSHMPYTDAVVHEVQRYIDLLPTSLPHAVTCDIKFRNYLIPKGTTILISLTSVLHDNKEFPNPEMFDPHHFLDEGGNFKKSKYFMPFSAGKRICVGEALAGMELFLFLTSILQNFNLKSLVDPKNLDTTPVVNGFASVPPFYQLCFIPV

Compound | IC50 [1] | Ki [1] | IC50 [2] | Ki [2] | IC50 [3] | Ki [3] | IC50 [4] | Ki [4] | IC50 [5] | Ki [5] | IC50 [6] | Ki [6] | IC50 (Cytochrome P450 2C9) | Ki (Cytochrome P450 2C9) | pIC50 [3] | pKi [3] | pIC50 [4] | pKi [4]
CCCCC(=O)N(Cc1ccc(-c2ccccc2-c2nnn[nH]2)cc1)[C@H](C(=O)O)C(C)C | Not Active | Not Active | Not Active | Not Active | Not Active | Not Active | Not Active | Not Active | Not Active | Not Active | Not Active | Not Active | Not Active | Not Active |  |  |  | 
O=C(O)COc1ccc(C(=O)c2cccs2)c(Cl)c1Cl | Not Active | Not Active | Not Active | Not Active | Not Active | Not Active | Not Active | Not Active | Not Active | Not Active | Not Active | Not Active | Not Active | Not Active |  |  |  | 
CN1[C@@H]2CC[C@H]1C[C@@H](OC(c1ccccc1)c1ccccc1)C2 [BENZTROPINE] |  |  |  |  |  |  |  |  |  |  |  |  | Not Active | Not Active |  |  |  | 
C[C@@](Cc1ccc(O)c(O)c1)(NN)C(=O)O.O [CARBIDOPA] | Not Active | Not Active | Not Active | Not Active | Not Active | Not Active | Not Active | Not Active | Not Active | Not Active | Not Active | Not Active | Not Active | Not Active |  |  |  | 
CN1CCN(C2=Nc3cc(Cl)ccc3Nc3ccccc32)CC1 [CLOZAPINE] |  |  |  |  |  |  |  |  |  |  |  |  | Not Active | Not Active |  |  |  | 
CC(C)NC[C@@H](O)COc1cccc2ccccc12 [DEXPROPRANOLOL] |  |  |  |  |  |  |  |  |  |  |  |  | Not Active | Not Active |  |  |  | 
CC(C)NC[C@H](O)COc1cccc2ccccc12 [LEVOPROPRANOLOL] |  |  |  |  |  |  |  |  |  |  |  |  | Not Active | Not Active |  |  |  | 
O=C(O)CCCCC1CCSS1 (stereo not drawn) [LIPOIC ACID, ALPHA] | Not Active | Not Active | Not Active | Not Active | Not Active | Not Active | Not Active | Not Active | Not Active | Not Active | Not Active | Not Active | Not Active | Not Active |  |  |  | 
CN(C)C(=O)C(CCN1CCC(O)(c2ccc(Cl)cc2)CC1)(c1ccccc1)c1ccccc1 [LOPERAMIDE] |  |  |  |  |  |  |  |  |  |  |  |  | Not Active | Not Active |  |  |  | 
C[C@]12C=CC(=O)C=C1CC[C@@H]1[C@@H]2C(=O)C[C@@]2(C)[C@H]1CC[C@]2(O)C(=O)CO [PREDNISONE] | Not Active | Not Active | Not Active | Not Active | Not Active | Not Active | Not Active | Not Active | Not Active | Not Active | Not Active | Not Active |  |  |  |  |  | 
OCCOCCN1CCN(C2=Nc3ccccc3Sc3ccccc32)CC1 [QUETIAPINE] |  |  |  |  |  |  |  |  |  |  |  |  | Not Active | Not Active |  |  |  | 
COC(=O)[C@H]1[C@H]2C[C@@H]3c4[nH]c5cc(OC)ccc5c4CCN3C[C@H]2C[C@@H](OC(=O)c2cc(OC)c(OC)c(OC)c2)[C@@H]1OC [RESERPINE] | Not Active | Not Active | Not Active | Not Active |  |  |  |  | Not Active | Not Active | Not Active | Not Active | Not Active | Not Active | 5.43 | 5.48 | 5.69 | 5.70
O=C(O)c1ccccc1O [SALICYLIC ACID] | Not Active | Not Active | Not Active | Not Active | Not Active | Not Active | Not Active | Not Active | Not Active | Not Active | Not Active | Not Active | Not Active | Not Active |  |  |  | 
CC1CCC(NC(=O)N(CCCl)N=O)CC1 (configuration not stated) [SEMUSTINE] | Not Active | Not Active | Not Active | Not Active | Not Active | Not Active | Not Active | Not Active | Not Active | Not Active | Not Active | Not Active | Not Active | Not Active |  |  |  | 
O=C1C[C@@H]2OCC=C3CN4CC[C@]56c7ccccc7N1[C@H]5[C@H]2[C@H]3C[C@H]46 [STRYCHNINE] | Not Active | Not Active | Not Active | Not Active | Not Active | Not Active | Not Active | Not Active | Not Active | Not Active | Not Active | Not Active |  |  |  |  |  | 
C[N+](C)(C)CCOC(=O)CCC(=O)OCC[N+](C)(C)C.[Cl-].[Cl-] [SUCCINYLCHOLINE CHLORIDE] | Not Active | Not Active | Not Active | Not Active | Not Active | Not Active | Not Active | Not Active | Not Active | Not Active | Not Active | Not Active | Not Active | Not Active |  |  |  | 
Nc1ccc(S(=O)(=O)NC(=O)c2ccccc2)cc1 [SULFABENZAMIDE] | Not Active | Not Active | Not Active | Not Active | Not Active | Not Active | Not Active | Not Active | Not Active | Not Active | Not Active | Not Active | Not Active | Not Active |  |  |  | 
CCCCCCCCNC(C)C(O)c1ccc(SC(C)C)cc1 (configuration not stated) [SULOCTIDIL] | Not Active | Not Active | Not Active | Not Active |  |  |  |  | Not Active | Not Active | Not Active | Not Active | Not Active | Not Active | 6.77 | 6.82 | 6.28 | 6.29
O=c1[nH]c(=O)n(C2CCCO2)cc1F (configuration not stated) [TEGAFUR] | Not Active | Not Active | Not Active | Not Active | Not Active | Not Active | Not Active | Not Active | Not Active | Not Active | Not Active | Not Active | Not Active | Not Active |  |  |  | 
CC(=N)S [THIOACETAMIDE] | Not Active | Not Active | Not Active | Not Active | Not Active | Not Active | Not Active | Not Active | Not Active | Not Active | Not Active | Not Active | Not Active | Not Active |  |  |  | 
Cc1ccc(C(=O)c2ccc(CC(=O)O)n2C)cc1 [TOLMETIN] | Not Active | Not Active | Not Active | Not Active | Not Active | Not Active | Not Active | Not Active | Not Active | Not Active | Not Active | Not Active | Not Active | Not Active |  |  |  | 
CC(=O)OCC(COC(C)=O)OC(C)=O [TRIACETIN] | Not Active | Not Active | Not Active | Not Active | Not Active | Not Active | Not Active | Not Active | Not Active | Not Active | Not Active | Not Active | Not Active | Not Active |  |  |  | 
CN1CCN(CCCN2c3ccccc3Sc3ccc(C(F)(F)F)cc32)CC1 [TRIFLUOPERAZINE] | Not Active | Not Active | Not Active | Not Active | Not Active | Not Active | Not Active | Not Active | Not Active | Not Active | Not Active | Not Active |  |  |  |  |  | 
TRANSPLATIN | Not Active | Not Active | Not Active | Not Active | Not Active | Not Active | Not Active | Not Active | Not Active | Not Active | Not Active | Not Active | Not Active | Not Active |  |  |  | 
ZIRCONIUM(IV) CHLORIDE | Not Active | Not Active | Not Active | Not Active | Not Active | Not Active | Not Active | Not Active | Not Active | Not Active | Not Active | Not Active | Not Active | Not Active |  |  |  | 
